Test results published in PubChem BioAssay (NCI).
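The compound was tested at five concentrations on cells cultured in 96-well plates, with a 48-hour exposure period. At the TGI there is no net growth.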

Key:
Assay in all cases: DTP human tumour cell line panel, 48 h
786-0 renal = test system: 786-0 renal
A498 renal = test system: A498 renal
EKVX NSCLC = test system: EKVX NSCLC
HCC-2998 colon = test system: HCC-2998 colon
HL-60(TB) leukemia = test system: HL-60(TB) leukemia
HS 578T breast = test system: HS 578T breast
HT29 colon = test system: HT29 colon
MOLT-4 leukemia = test system: MOLT-4 leukemia
NCI-H226 lung = test system: NCI-H226 lung
NCI/ADR-RES ovarian = test system: NCI/ADR-RES ovarian
OVCAR-4 ovarian = test system: OVCAR-4 ovarian
OVCAR-8 ovarian = test system: OVCAR-8 ovarian
SK-MEL-5 melanoma = test system: SK-MEL-5 melanoma
SN12C renal = test system: SN12C renal
SNB-75 CNS = test system: SNB-75 CNS

Row | SMILES | TGI (786-0 renal) | TGI (A498 renal) | TGI (EKVX NSCLC) | TGI (HCC-2998 colon) | TGI (HL-60(TB) leukemia) | TGI (HS 578T breast) | TGI (HT29 colon) | TGI (MOLT-4 leukemia) | TGI (NCI-H226 lung) | TGI (NCI/ADR-RES ovarian) | TGI (OVCAR-4 ovarian) | TGI (OVCAR-8 ovarian) | TGI (SK-MEL-5 melanoma) | TGI (SN12C renal) | TGI (SNB-75 CNS)
1 | CCCCN=NNc1cn(C2OC(CO)C(O)C2O)c(=O)[nH]c1=O (stereo not given) | > 100 µM | > 100 µM | > 100 µM | > 100 µM | > 100 µM | > 100 µM | > 100 µM | > 100 µM | > 100 µM | > 100 µM | > 100 µM | > 100 µM | > 100 µM | > 100 µM | 
2 | COC(=O)[C@@H]1CN(C(=O)CCc2ccccc2)C(=O)N1 | > 100 µM | > 100 µM | > 100 µM | > 100 µM | > 100 µM | > 100 µM | > 100 µM | > 100 µM | > 100 µM | > 100 µM | > 100 µM | > 100 µM | > 100 µM | > 100 µM | 
3 | S=C1NC2=C(CSC/C2=C\c2ccc(Cl)cc2)C(c2ccc(Cl)cc2)N1 (stereo not given) | 84 µM |  | > 100 µM | 77.6 µM | 70.7 µM | > 100 µM | > 100 µM | > 100 µM |  | > 100 µM | > 100 µM | > 100 µM | 37.3 µM | > 100 µM | 
4 | N=c1oc2ccccc2cc1C(=O)Nc1cccc2ccccc12 | > 100 µM | > 100 µM |  | > 100 µM | > 100 µM | > 100 µM | > 100 µM | > 100 µM | > 100 µM | > 100 µM | > 100 µM | > 100 µM | > 100 µM | > 100 µM | > 100 µM
5 | CCOC(=O)c1ncn(CCc2ccc(Cl)cc2)c1C | > 100 µM | > 100 µM | > 100 µM | > 100 µM | > 100 µM | > 100 µM | > 100 µM | > 100 µM | > 100 µM | > 100 µM | > 100 µM | > 100 µM | > 100 µM | > 100 µM | 
6 | CCc1n[nH]c(=O)n1CC | > 100 µM | > 100 µM | > 100 µM | > 100 µM | > 100 µM | > 100 µM | > 100 µM | > 100 µM | > 100 µM | > 100 µM | > 100 µM | > 100 µM | > 100 µM | > 100 µM | 
7 | O=Cc1ccc2ccocc1-2 | > 100 µM | > 100 µM | > 100 µM | > 100 µM | > 100 µM | > 100 µM | > 100 µM | > 100 µM | > 100 µM | > 100 µM | > 100 µM | > 100 µM | > 100 µM | > 100 µM | 
8 | CC(O)CNC(=O)Nc1c(C(F)(F)F)cc(-c2ccccc2)[nH]c1=O (stereo not given) | > 100 µM | > 100 µM | > 100 µM | > 100 µM | 1.54 µM | > 100 µM | > 100 µM | > 100 µM | > 100 µM | > 100 µM | > 100 µM | > 100 µM | > 100 µM | > 100 µM | 
9 | C[C@@H]1S[C@H](c2c(F)cccc2Cl)n2c1nc1ccccc12 | 28.4 µM |  | 56 µM | 26.5 µM |  | 41.6 µM | 29.3 µM | 32 µM | 37 µM | 31.4 µM | 37 µM | > 100 µM |  | 29 µM | 60.8 µM
10 | CC(Br)CN1CCOCC1 (stereo not given) | > 100 µM | > 100 µM | > 100 µM | > 100 µM | 51.8 µM | > 100 µM | > 100 µM |  | > 100 µM | > 100 µM |  | > 100 µM | > 100 µM | > 100 µM | 
11 | Clc1sc(Cl)c2c1[C@H](Cl)C[C@@H]2Cl | 48.9 µM | > 100 µM | > 100 µM | 33.4 µM |  | 44.1 µM | > 100 µM | > 100 µM | 39.8 µM | 37.4 µM | 52.7 µM | 34.9 µM | > 100 µM | 50.6 µM | 64.7 µM
12 | CCOC(=O)CN1C(=O)NC(C)(c2ccccc2)C1=O (stereo not given) | > 100 µM | > 100 µM | > 100 µM | > 100 µM |  | > 100 µM | > 100 µM | > 100 µM |  | > 100 µM | > 100 µM | > 100 µM | > 100 µM | > 100 µM | > 100 µM
13 | Cc1[nH]c(C)c(CN(C)C)c1CN(C)C | > 100 µM | > 100 µM | > 100 µM | > 100 µM |  | > 100 µM | > 100 µM |  | > 100 µM | > 100 µM | > 100 µM | > 100 µM | > 100 µM | > 100 µM | 
14 | CC(C)(C)OC(=O)N(O)[C@@H]1CC[C@H](n2cnc3c(N)ncnc32)C1 | > 100 µM | > 100 µM | > 100 µM | > 100 µM |  | > 100 µM | > 100 µM | > 100 µM | > 100 µM | > 100 µM | > 100 µM | > 100 µM | > 100 µM | > 100 µM | > 100 µM
15 | O=C1CSC(c2ccccc2O)N1c1ccc2c(c1)Oc1c(Cl)c3c(c(Cl)c1=N2)Oc1cc(N2C(=O)CSC2c2ccccc2O)ccc1N=3 (stereo not given) | > 100 µM | > 100 µM | > 100 µM | > 100 µM | > 100 µM | > 100 µM | > 100 µM | 46.4 µM | > 100 µM | > 100 µM | > 100 µM | > 100 µM | > 100 µM |  | 
